From US20230117034A1, “PYRAZOLOTRIAZINES” (Bayer Aktiengesellschaft, priority 2019, published 2023) come the findings set out here.

Assay [1] relates to BRCA1 mRNA expression in CAL-120 cells. As to the kind of experiment: qRT-PCR assay: BRCA1 mRNA expression in CAL-120. Format: cell-based. The note with it: Homo sapiens; Inhibition of BRCA1 mRNA expression in CAL-120 cells; median; read-out: RTqPCR-CAL-120, IC50, BRCA1 (median). The method, boiled down: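 Human breast cancer cells, 200,000/well, were treated with test agents for 24 h without interruption after a 24 h settling period. Gene expression came from qPCR on cDNA made from 600 ng RNA, relative to GAPDH.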
Background: Quantitative PCR measures a nucleic acid by following its amplification.

Assay [2] deals with T1, CDK9/CycT1 (Homo sapiens, UniProt P50750).
T1 construct: Recombinant full-length His-tagged human CDK9 and CycT1; purchased Life Technologies PV4131; host or cells: insect cells
T1 sequence (P50750 whole entry): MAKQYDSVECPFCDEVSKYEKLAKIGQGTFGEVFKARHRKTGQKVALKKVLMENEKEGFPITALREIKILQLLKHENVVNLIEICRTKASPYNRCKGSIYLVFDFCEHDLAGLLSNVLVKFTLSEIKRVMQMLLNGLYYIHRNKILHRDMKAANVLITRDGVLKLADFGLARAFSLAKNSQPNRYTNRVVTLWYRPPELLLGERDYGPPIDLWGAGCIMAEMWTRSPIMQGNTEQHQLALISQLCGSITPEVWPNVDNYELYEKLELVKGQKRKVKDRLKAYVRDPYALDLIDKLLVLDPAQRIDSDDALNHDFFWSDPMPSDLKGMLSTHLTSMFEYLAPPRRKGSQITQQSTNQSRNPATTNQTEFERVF
T1 sequence (O60563 whole entry partner): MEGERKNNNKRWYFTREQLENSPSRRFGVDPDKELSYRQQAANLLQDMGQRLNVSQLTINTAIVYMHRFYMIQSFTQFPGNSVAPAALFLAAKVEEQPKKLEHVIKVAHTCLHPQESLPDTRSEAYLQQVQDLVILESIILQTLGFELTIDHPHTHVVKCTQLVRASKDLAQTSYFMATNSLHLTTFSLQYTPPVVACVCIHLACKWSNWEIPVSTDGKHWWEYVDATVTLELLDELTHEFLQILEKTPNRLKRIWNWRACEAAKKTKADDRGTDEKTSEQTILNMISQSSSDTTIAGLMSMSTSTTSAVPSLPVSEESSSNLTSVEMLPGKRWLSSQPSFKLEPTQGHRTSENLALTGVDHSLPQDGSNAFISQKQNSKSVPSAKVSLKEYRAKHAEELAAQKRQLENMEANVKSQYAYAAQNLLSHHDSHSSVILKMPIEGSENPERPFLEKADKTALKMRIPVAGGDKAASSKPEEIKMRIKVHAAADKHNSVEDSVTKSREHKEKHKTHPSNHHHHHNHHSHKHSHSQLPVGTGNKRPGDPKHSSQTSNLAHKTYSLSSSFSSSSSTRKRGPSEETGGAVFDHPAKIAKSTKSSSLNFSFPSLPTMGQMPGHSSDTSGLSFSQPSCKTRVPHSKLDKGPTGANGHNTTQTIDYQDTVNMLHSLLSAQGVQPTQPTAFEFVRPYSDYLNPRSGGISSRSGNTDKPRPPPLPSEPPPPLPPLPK
Put plainly: CDK9/CycT1 high ATP kinase assay (TR-FRET, 2 mM ATP). Format: biochemical. The settings on record: 2 mM ATP (high ATP); median; read-out: CDK9/CyclinT1, 2 mM ATP (high ATP), IC50 (median). The method, boiled down:
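Full-length His-tagged human CDK9/CycT1 (insect cell, ~0.5 μg/mL) preincubated 15 min at 22 °C with compound in Tris pH 8.0, MgCl2, DTT buffer before reaction with biotinylated peptide substrate at high ATP (2 mM).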
For orientation: TR-FRET usually uses a lanthanide donor and a delayed reading to cut background.

Assay [3] addresses T2, CDK12 protein level in CAL-120 breast cancer cells (Homo sapiens, UniProt Q9NYV4).
T2 construct: endogenous in cells; host or cells: CAL-120 human breast cancer cells (DSMZ ACC 459)
Put plainly: CDK12 protein level: Protein Simple (CDK12, CAL-120). The note with it: CAL-120 cells, 18 h with compound, CDK12/HSP90 peak area ratio vs vehicle, median, read-out: CDK12 protein level in CAL-120 breast ca cells, DC50-[mol/l] (median). Format: cell-based. The procedure, abridged: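 Cells grown 24 h, then treated with compounds for 18 h at 37° C against DMSO controls. Lysates (0.4 microgramms protein) run on Protein Simple 66-440 kDa size assay with CDK12 and HSP90 loading-control antibodies. CDK12/HSP90 peak-area ratios versus vehicle gave DC50 (50% reduction) by 4-parameter fit.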

Assay [4] addresses T3, CYCLIN K (nuclear staining in CAL-120 cells) (Homo sapiens, UniProt O75909).
T3 construct: endogenous in cells; host or cells: CAL-120 human breast cancer cells (DSMZ ACC 459)
As to the kind of experiment: CYCLIN K nuclear protein level: immunofluorescence high content analysis (CAL-120). The format is cell-based. The settings on record: 24 h, 50% reduction of nuclear CCNK staining intensity, median, read-out: CYCLIN K degradation IF, DC50-[mol/l] (median). The procedure, abridged: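 Readout is automated confocal image analysis of nuclear cyclin K immunofluorescence (Hoechst nuclei) after PFA fixation. Cells were CAL-120, exposed to compound dose-response 24 h at 37 °C; values are DC50 for halving nuclear CCNK signal relative to DMSO and control wells.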

T3 sequence (O75909 whole entry): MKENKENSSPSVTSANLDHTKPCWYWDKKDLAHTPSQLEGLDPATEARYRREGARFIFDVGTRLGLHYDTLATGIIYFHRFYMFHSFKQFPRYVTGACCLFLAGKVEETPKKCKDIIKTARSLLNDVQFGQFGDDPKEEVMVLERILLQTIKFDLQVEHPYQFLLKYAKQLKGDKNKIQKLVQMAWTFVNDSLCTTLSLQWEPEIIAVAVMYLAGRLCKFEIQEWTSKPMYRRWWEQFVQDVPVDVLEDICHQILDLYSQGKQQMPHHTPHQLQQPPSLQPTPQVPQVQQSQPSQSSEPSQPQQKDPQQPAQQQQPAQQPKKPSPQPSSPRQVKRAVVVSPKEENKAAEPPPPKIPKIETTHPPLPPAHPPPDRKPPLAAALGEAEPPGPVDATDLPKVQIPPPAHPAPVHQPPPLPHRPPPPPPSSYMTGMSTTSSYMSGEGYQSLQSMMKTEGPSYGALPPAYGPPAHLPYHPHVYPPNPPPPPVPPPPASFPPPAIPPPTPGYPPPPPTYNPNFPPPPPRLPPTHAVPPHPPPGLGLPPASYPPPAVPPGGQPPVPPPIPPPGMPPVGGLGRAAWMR
T3 sequence (Q9NYV4 whole entry partner): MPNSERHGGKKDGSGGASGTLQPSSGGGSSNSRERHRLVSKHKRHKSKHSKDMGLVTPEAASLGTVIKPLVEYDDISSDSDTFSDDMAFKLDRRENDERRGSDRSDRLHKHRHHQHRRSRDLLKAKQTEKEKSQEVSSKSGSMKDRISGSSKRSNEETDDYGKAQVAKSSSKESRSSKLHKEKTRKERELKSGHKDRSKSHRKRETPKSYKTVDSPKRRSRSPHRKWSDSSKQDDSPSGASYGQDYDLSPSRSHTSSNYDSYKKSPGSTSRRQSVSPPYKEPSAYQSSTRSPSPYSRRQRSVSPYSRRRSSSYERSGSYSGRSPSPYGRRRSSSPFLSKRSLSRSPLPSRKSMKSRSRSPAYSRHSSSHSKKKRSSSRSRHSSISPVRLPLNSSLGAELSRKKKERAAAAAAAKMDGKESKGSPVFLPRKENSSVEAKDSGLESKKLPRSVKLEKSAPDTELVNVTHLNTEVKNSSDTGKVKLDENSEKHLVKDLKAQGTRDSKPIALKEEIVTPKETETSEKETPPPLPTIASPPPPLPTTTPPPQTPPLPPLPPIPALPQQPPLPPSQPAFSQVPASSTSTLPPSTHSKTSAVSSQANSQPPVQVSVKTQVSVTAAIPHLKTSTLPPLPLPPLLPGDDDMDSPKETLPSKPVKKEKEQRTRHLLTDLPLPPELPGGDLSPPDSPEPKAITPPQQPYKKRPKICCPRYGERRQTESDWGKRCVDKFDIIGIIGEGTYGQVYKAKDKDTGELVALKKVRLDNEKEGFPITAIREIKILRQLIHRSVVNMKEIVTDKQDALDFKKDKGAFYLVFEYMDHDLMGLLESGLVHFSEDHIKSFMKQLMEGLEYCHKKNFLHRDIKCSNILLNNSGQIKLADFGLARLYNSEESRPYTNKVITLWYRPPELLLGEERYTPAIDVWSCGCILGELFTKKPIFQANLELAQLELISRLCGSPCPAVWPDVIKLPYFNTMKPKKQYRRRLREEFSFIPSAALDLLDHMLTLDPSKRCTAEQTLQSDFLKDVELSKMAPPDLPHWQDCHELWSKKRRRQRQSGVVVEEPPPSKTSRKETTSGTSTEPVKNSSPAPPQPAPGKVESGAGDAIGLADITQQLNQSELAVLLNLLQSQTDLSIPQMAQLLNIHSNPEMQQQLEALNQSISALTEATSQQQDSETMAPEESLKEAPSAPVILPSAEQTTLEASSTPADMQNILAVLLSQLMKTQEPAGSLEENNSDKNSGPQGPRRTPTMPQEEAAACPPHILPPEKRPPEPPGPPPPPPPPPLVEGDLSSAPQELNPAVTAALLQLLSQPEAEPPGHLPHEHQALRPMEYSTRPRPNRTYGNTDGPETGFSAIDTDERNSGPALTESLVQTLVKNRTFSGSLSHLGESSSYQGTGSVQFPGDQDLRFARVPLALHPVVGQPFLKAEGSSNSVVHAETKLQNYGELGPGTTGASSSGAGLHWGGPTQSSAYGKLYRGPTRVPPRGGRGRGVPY
T2 sequence (Q9NYV4 whole entry): as the sequence (Q9NYV4 whole entry partner) above
T2 sequence (O75909 whole entry partner): as the sequence (O75909 whole entry) above

Regarding `CC(C)c1cnn2c(NCc3ncc(-c4ccccc4)[nH]3)nc(N3CCN(C)CC3)nc12` [Example 31, 2-(4-methylpiperazin-1-yl)-N-[(5-phenyl-1H-imidazol-2-yl)methyl]-8-(propan-2-yl)pyrazolo[1,5-a][1,3,5]triazin-4-amine], the IC50 in assay [1] is 54.9 nM; in assay [2], > 20000 nM. The DC50 in assay [3] is 10.9 nM.
As to `CN(CC(C)(C)O)c1nc(NCc2nc3cc(Cl)c(Cl)cc3[nH]2)n2ncc(Br)c2n1` [Example 331, 1-[(8-bromo-4-{[(5,6-dichloro-1H-benzimidazol-2-yl)methyl]amino}pyrazolo[1,5-a][1,3,5]triazin-2-yl)(methyl)amino]-2-methylpropan-2-ol], the DC50 in assay [4] is 0.44 nM. For the same molecule, in assay [2], the IC50 stood at 4900 nM.
Consider `CN(CC(C)(C)O)c1nc(NCc2nc3c(F)c(Cl)ccc3[nH]2)n2ncc(Br)c2n1` [Example 374, 1-[(8-bromo-4-{[(5-chloro-4-fluoro-1H-benzimidazol-2-yl)methyl]amino}pyrazolo[1,5-a][1,3,5]triazin-2-yl)(methyl)amino]-2-methylpropan-2-ol], for which the DC50 in assay [4] is 0.345 nM. For the same molecule, the IC50 in assay [2] is 1640 nM.
The matching figures for `Fc1cc2nc(CNc3nc(N4CC5CCC(C4)N5)nc4c(C5CC5)cnn34)[nH]c2cc1F` [Example 325, 8-cyclopropyl-2-(3,8-diazabicyclo[3.2.1]octan-3-yl)-N-[(5,6-difluoro-1H-benzimidazol-2-yl)methyl]pyrazolo[1,5-a][1,5]triazin-4-amine]: 0.53 nM and > 20000 nM.
With `Cc1cc2nc(CNc3nc(N4CCOCC4)nc4c(Br)cnn34)[nH]c2cc1C` [Example 340, 8-bromo-N-[(5,6-dimethyl-1H-benzimidazol-2-yl)methyl]-2-(morpholin-4-yl)pyrazolo[1,5-a][1,3,5]triazin-4-amine], the DC50 in assay [4] was 0.827 nM. In addition, the IC50 in assay [2] came out at 12600 nM.
For `Cc1ccnc2[nH]c(CNc3nc(N4CCOCC4)nc4c(C(C)C)cnn34)nc12` [Example 28, N-[(7-methyl-3H-imidazo[4,5-b]pyridin-2-yl)methyl]-2-(morpholin-4-yl)-8-(propan-2-yl)pyrazolo[1,5-a][1,3,5]triazin-4-amine], the results for the DC50 in assay [4] and in assay [3] were 0.888 nM and 1.44 nM, respectively. Further, the figures for the IC50 in assay [1] and in assay [2] were 30.6 nM and > 20000 nM, respectively.
Take `Fc1cc2nc(CNc3nc(N4CCOCC4)nc4c(Br)cnn34)[nH]c2cc1F` [Example 341, 8-bromo-N-[(5,6-difluoro-1H-benzimidazol-2-yl)methyl]-2-(morpholin-4-yl)pyrazolo[1,5-a][1,3,5]triazin-4-amine]: the DC50 in assay [4] stood at 0.29 nM. In assay [2], the IC50 was 17400 nM.
Regarding `CN(CC(C)(C)O)c1nc(NCc2nc3cc(F)c(F)cc3[nH]2)n2ncc(C3CC3)c2n1` [Example 319, 1-[(8-cyclopropyl-4-{[(5,6-difluoro-1H-benzimidazol-2-yl)methyl]amino}pyrazolo[1,5-a][1,3,5]triazin-2-yl)(methyl)amino]-2-methylpropan-2-ol], in assay [4], the DC50 was found to be 0.492 nM. For the same molecule, in assay [2], the IC50 is > 20000 nM.
For the molecule `Cc1cc2nc(CNc3nc(N4CC5CCC(C4)N5)nc4c(C5CC5)cnn34)[nH]c2cc1C` [Example 326, 8-cyclopropyl-2-(3,8-diazabicyclo[3.2.1]octan-3-yl)-N-[(5,6-dimethyl-1H-benzimidazol-2-yl)methyl]pyrazolo[1,5-a][1,5]triazin-4-amine], the DC50 in assay [4] stood at 0.654 nM. Moreover, the IC50 in assay [2] was found to be 17000 nM.
On to `CC(C)c1cnn2c(NCc3ncc(-c4ccccc4)[nH]3)nc(N3CCOCC3)nc12` [Example 30, 2-(morpholin-4-yl)-N-[(5-phenyl-1H-imidazol-2-yl)methyl]-8-(propan-2-yl)pyrazolo[1,5-a][1,3,5]triazin-4-amine], for which the DC50 in assay [4] is 4.1 nM. For the same molecule, the IC50 in assay [2] is > 20000 nM.
`Fc1ccc(-c2nnc(CNc3nc(N4CCOCC4)nc4c(Br)cnn34)[nH]2)cc1` [Example 29, 8-bromo-N-{[5-(4-fluorophenyl)-4H-1,2,4-triazol-3-yl]methyl}-2-(morpholin-4-yl)pyrazolo[1,5-a][1,3,5]triazin-4-amine]: the DC50 in assay [4] turned out to be 3.36 nM; in assay [3] it was 9.15 nM. Also, the IC50 was determined as 84.1 nM in assay [1] and 2400 nM in assay [2].
For the molecule `Cc1[nH]c(CNc2nc(N3CCOCC3)nc3c(Br)cnn23)nc1-c1ccccc1` [Example 27, 8-bromo-N-[(5-methyl-4-phenyl-1H-imidazol-2-yl)methyl]-2-(morpholin-4-yl)pyrazolo[1,5-a][1,3,5]triazin-4-amine], the DC50 stood at 66.3 nM in assay [4] and 44.6 nM in assay [3]. Also, the IC50 in assay [2] amounted to 14700 nM.
For `Cc1cc2nc(CNc3nc(N4CCN(C)CC4)nc4c(Br)cnn34)[nH]c2cc1C` [Example 342, 8-bromo-N-[(5,6-dimethyl-1H-benzimidazol-2-yl)methyl]-2-(4-methylpiperazin-1-yl)pyrazolo[1,5-a][1,3,5]triazin-4-amine], the DC50 in assay [4] is 0.053 nM. In addition, in assay [2], the IC50 was > 20000 nM.
Consider `CN1C2CCC1CN(c1nc(NCc3nc4c(F)cccc4[nH]3)n3ncc(C(F)(F)F)c3n1)C2` [Example 384, N-[(4-fluoro-1H-benzimidazol-2-yl)methyl]-2-(8-methyl-3,8-diazabicyclo[3.2.1]octan-3-yl)-8-(trifluoromethyl)pyrazolo[1,5-a][1,3,5]triazin-4-amine], for which, in assay [4], the DC50 came out at 0.662 nM. Moreover, the IC50 in assay [2] is > 20000 nM.
The matching figures for `CN(CC(C)(C)O)c1nc(NCc2nc3cc(F)c(F)cc3[nH]2)n2ncc(Br)c2n1` [Example 347]: 0.101 nM and 10400 nM.
For `Clc1cc2nc(CNc3nc(N4CC5CCC(C4)N5)nc4c(Br)cnn34)[nH]c2cc1Cl` [Example 334, 8-bromo-2-(3,8-diazabicyclo[3.2.1]octan-3-yl)-N-[(5,6-dichloro-1H-benzimidazol-2-yl)methyl]pyrazolo[1,5-a][1,3,5]triazin-4-amine], the DC50 in assay [4] is 2.06 nM. For the same molecule, in assay [2], the IC50 is 8140 nM.
